{
  "source": "patent US11214835B1",
  "about": "“Methods and compositions for diagnosis and management of neurodegerative diseases” (UNIVERSITY OF SOUTH FLORIDA, priority 2017, dated 2022)",
  "tested_on": "GAS5 lncRNA",
  "test": "γ-AApeptide OBOC combinatorial library screen with fluorescein tagged GAS5 oligonucleotide, hits validated in vitro",
  "assay_type": "binding",
  "settings": "fluorescein tagged GAS5 oligonucleotide probe, tRNA as control",
  "source_text": "The interaction between UPF1 and GAS5 was disrupted using a γ-AApeptide based one-bead-one-compound (OBOC) combinatorial library (Wu H, Li Y, Bai G, Niu Y, Qiao Q, Tipton J D, Cao C, Cai J. gamma-AApeptide-based small-molecule ligands that inhibit Abeta aggregation. Chemical communications. 2014; 50(40):5206-8. doi: 10.1039/c3cc46685j. PubMed PMID: 24158240). The γ-AApeptide is a peptidomimetic with side chains for chemical diversity and are resistant to proteolytic cleavage. To screen the compound library, a probe that contained a fluorescein tagged oligonucleotide was synthesized. The probe spanned 30 nucleotides on either side of the UAA sequences on GAS5 (FIG. 13) The fluorescein was attached to the 5′end (beginning of oligonucleotide probe sequence). The nucleotide sequence within the GAS5 IncRNA that the oligonucleotide probe binds to can be about 100% identical to […] (SEQ ID NO: 4), which is nucleotides 541 to 651 of SEQ ID NO: 1. The underlined regions indicate the UAA that is the target regions. As such, the oligonucleotide probe was designed to flank both sides of these target regions.\nThe length of oligonucleotide was required to maintain stem loop structure to specifically bind to GAS5. Further, we modeled the oligonucleotide (RNAfold software) to evaluate its folding and verified absence of any unwanted secondary structures. The backbone was modified by 2′-MOE (2′-O-methoxyethylribose), which protects it from degradation and a fluoroscein tag was attached to the 5′end to aid in screening. The oligonucleotide probe was used to screen 160,000 molecules in the combinatorial library using tRNA as control (as tRNA has similar stem loop secondary structures). […] The compound having a structure according to Formula 3 was determined to have a chemical formula of C68H92N10O9S, a mass of about 1224.6769, and a molecular weight of 1225.6050. The compound having a structure according to Formula 14 was determined to have a chemical formula of C63H85N9O13S, a mass of about 1207.5988, and a molecular weight of 1208.4830. […]",
  "data": [
    {"compound": "NCCCC[C@H]1CN(C(=O)CCc2ccccc2)CC(=O)N[C@@H](CCC(=O)O)CN(CC(N)=O)C(=O)CCSCc2ccc(cc2)C(=O)N[C@@H](CCC(=O)O)CN(C(=O)CCC(=O)O)CC(=O)N[C@@H](CCCCN)CN(C(=O)CCCN)CC(=O)N1", "note": "[NPG567]", "values": [
      {"measurement": "ability to bind GAS5 (identified and validated from library screen)", "result": "can bind GAS5"}
    ]},
    {"compound": "CC(C)C[C@H]1CN(C(=O)CC2CC2)CC(=O)N[C@@H](CCCCN)CN(C(=O)CCc2ccccc2)CC(=O)N[C@@H](Cc2ccccc2)CN(CC(N)=O)C(=O)CCSCc2ccc(cc2)C(=O)N[C@@H](Cc2ccccc2)CN(C(=O)CC2CC2)CC(=O)N1", "note": "[Formula G5-1397]", "values": [
      {"measurement": "ability to bind GAS5 (identified and validated from library screen)", "result": "able to bind GAS5"}
    ]}
  ]
}
